A value given as a limit tells only on which side of the number the result lay.

For one data set, the target named is T1, GABAA α2β3γ2 (Homo sapiens, UniProt P18507+P28472+P47869).
T1 construct: expressed in transfected cells; host or cells: HEK293
The data set can be described thus: 35S-TBPS binding assay, HEK293 membranes with GABAA α2β3γ2 construct. Particulars: 35S-TBPS 5 nM, GABA 1 μM, 2 hours at room temperature, read-out: α2β3γ2 (35S-TBPS binding, pIC50) (converted). How it is done: (§1) The binding assay is based on the assay reported by K. Gee et al., Eur. J. Pharmacol. 1987, 136, 419-423.
(§2) Homogenate preparation: Membrane preparations of HEK293 cells containing either GABAA α1β2γ2 or GABAA α2β3γ2 constructs were performed according to a modified procedure previously described by Gee et al. (supra). Whole HEK 293 cells in D-PBS (calcium/magnesium free) buffer adjusted to pH 7.4 were centrifuged at 7,280×g for 20 m. After discarding the supernatant, the pellet was resuspended in the buffer and centrifuged at 1,820×g for 10 m. Afterwards, the supernatant was discarded and the pellet resuspended in ice-cold preparation buffer (50 mM Tris HCl pH 7.4, 4° C. and 150 mM KCl), homogenized for 30 sec using a Brinkmann Polytron PT3000 (setting 6) and centrifuged at 48,000×g for 30 m at 4° C. The centrifugation and homogenization procedure was repeated two more times for a total of 3 times before resuspending the membranes at a final protein concentration of 0.5 mg/mL. Aliquots (30 mL) of the final membrane preparation were then centrifuged at 48,000×g for 30 m, and the resulting pellets were stored at −80° C. until required.
(§3) 35S-TBPS binding assay. Membrane pellets containing either GABAA α1β2γ2 or GABAA α2β3γ2 constructs were thawed on ice, resuspended in 10 mL of 50 mM Tris HCl pH7.4, 4° C. and 150 mM KCl and centrifuged at 48,000×g, 30 m at 4° C. After discarding the supernatant, the pellet was resuspended in 30 mL incubation buffer (50 mM Tris HCl pH 7.4, 25° C. and 150 mM KCl) at approximately 0.5 mg/mL protein concentration. In 35S-TBPS competition studies, HEK293 membranes were incubated with 35S-TBPS (5 nM final) and GABA (1 μM) in the absence or presence of competitor at concentrations ranging from 0.01 nM to 10 μM in 125 μL incubation buffer for 2 hours at room temperature (˜22° C.). Non-specific binding was assayed with picrotoxin (100 μM final concentration). The binding reaction was terminated by vacuum filtration through GF/B filters previously soaked in 0.1% polyethylenimine followed by 3×1 mL washes with ice cold wash buffer (50 mM Tris HCl pH7.4, 4° C. and 150 mM KCl). Measurement of bound radioactivity was performed using a Packard Microplate 96 well topcount scintillation counter. Analysis of competition curves and estimation of pIC50 values of test compounds were performed using the software programs ActivityBase and/or Prism (version 3.0).

In another data set the target is T2, GABAA α1β2γ2 (Homo sapiens, UniProt P14867+P18507+P47870).
T2 construct: expressed in transfected cells; host or cells: HEK293
T2 sequence (P14867 28-456): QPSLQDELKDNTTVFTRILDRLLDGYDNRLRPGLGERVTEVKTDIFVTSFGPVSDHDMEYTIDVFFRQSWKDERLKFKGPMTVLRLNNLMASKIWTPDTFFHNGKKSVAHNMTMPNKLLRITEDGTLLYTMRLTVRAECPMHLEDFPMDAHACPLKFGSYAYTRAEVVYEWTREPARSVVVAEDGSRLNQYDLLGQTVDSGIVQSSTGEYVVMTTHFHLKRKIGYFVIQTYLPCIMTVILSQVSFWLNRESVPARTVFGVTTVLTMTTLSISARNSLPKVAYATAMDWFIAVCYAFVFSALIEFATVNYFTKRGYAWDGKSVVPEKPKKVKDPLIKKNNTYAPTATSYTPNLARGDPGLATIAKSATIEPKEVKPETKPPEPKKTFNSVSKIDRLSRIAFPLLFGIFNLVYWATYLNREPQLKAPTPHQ
T2 sequence (P47870 25-512 limits assumed): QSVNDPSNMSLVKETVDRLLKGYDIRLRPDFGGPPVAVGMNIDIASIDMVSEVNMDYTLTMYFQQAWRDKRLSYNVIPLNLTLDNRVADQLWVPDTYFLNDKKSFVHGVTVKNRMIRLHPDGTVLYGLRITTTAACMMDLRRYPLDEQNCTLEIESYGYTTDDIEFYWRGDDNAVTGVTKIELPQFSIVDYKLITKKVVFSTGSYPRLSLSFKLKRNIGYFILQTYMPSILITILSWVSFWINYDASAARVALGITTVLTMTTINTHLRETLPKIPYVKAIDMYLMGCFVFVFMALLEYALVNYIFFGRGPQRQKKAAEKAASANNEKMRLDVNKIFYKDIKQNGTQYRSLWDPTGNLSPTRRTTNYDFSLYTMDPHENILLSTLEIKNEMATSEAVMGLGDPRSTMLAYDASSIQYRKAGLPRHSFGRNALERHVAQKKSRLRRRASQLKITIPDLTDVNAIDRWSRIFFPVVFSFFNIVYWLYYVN
T2 sequence (P18507 40-475): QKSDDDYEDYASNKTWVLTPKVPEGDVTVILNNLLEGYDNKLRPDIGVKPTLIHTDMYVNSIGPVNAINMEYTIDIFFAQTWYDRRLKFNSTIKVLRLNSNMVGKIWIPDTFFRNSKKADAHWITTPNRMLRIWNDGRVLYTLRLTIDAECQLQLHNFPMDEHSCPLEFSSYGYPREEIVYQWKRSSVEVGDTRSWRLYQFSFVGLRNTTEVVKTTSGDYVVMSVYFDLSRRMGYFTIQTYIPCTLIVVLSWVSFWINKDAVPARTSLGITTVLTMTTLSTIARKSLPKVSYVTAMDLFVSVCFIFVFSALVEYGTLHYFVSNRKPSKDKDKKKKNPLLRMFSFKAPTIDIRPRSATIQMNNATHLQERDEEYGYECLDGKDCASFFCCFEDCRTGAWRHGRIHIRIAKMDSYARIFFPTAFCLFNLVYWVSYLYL
As to the kind of experiment: 35S-TBPS binding assay, HEK293 membranes with GABAA α1β2γ2 construct. Particulars: 35S-TBPS 5 nM, GABA 1 μM, 2 hours at room temperature, read-out: α1β2γ2 (35S-TBPS binding, pIC50) (converted). How it is done:
as §1, §2, §3

T1 sequence (P47869 29-451): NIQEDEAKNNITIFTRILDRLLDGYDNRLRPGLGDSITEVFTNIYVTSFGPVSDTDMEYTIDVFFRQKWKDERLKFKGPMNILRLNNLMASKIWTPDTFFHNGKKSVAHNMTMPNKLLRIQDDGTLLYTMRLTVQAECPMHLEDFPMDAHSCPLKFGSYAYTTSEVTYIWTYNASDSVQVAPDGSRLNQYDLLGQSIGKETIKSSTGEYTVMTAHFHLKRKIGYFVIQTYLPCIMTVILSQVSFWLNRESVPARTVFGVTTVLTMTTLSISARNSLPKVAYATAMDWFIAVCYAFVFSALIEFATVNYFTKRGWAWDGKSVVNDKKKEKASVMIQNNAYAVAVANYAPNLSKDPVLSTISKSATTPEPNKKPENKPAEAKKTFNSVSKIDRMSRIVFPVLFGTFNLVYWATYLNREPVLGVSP
T1 sequence (P28472 26-473): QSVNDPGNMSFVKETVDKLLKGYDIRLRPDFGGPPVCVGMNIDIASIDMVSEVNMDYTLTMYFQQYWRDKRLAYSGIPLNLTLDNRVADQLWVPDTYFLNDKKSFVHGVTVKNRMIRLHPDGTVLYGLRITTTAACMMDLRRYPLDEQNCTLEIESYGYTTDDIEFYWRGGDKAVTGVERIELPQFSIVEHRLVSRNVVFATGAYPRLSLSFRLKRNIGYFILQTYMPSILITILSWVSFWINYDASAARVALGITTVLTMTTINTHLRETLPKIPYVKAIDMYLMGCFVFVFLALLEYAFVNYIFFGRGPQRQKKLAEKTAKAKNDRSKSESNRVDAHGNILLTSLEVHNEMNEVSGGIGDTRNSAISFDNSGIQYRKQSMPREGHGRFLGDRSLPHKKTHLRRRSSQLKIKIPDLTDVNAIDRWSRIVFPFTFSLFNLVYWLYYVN
T1 sequence (P18507 40-475): as the sequence (P18507 40-475) above

By melting point is commonly meant the temperature of the solid-liquid transition. As to `Cn1nc2c(-c3ccc(Cl)cc3Cl)cccc2c1Cc1nnn(CS(C)(=O)=O)n1` [I-12, 7-(2,4-Dichloro-phenyl)-3-(2-meth-anesulfonylmethyl-2H-tetra-zol-5-ylmethyl)-2-meth-yl-2H-indazole], the melting point lay in the range of 156.6 to 157.8 °C. In addition, at GABAA α2β3γ2, the IC50 was 0.269 µM. For the same compound, at GABAA α1β2γ2, the IC50 is 1.15 µM.

As to `Cn1nc2c(-c3ccc(Cl)cc3Cl)cccc2c1-n1cnnc1` [I-23, 7-(2,4-Dichloro-phenyl)-2-meth-yl-3-[1,2,4]triazol-4-yl-2H-inda-zole], the melting point is 117.9 to 121.3 °C. Moreover, the IC50 at GABAA α2β3γ2 was 4.07 µM. Further, the IC50 on GABAA α1β2γ2 is greater than 10 µM.

In turn, `Cn1nc2c(-c3ccc(Cl)cc3Cl)cccc2c1CCc1ncn[nH]1` [I-34, 7-(2,4-Dichloro-phenyl)-2-meth-yl-3-[2-(2H-[1,2,4]tri-azol-3-yl)-ethyl]-2H-inda-zole] showed a melting point of 92 to 115.5 °C. The IC50 at GABAA α2β3γ2 is 0.309 µM. On GABAA α1β2γ2, the IC50 is 9.55 µM.

Compound `Cn1nc2c(-c3ccc(Cl)cc3Cl)cccc2c1-c1nnco1` [I-39, 7-(2,4-Dichloro-phenyl)-2-meth-yl-3-[1,3,4]oxadiazol-2-yl-2H-inda-zole] came in with a melting point of 199 to 201.2 °C. The IC50 at GABAA α2β3γ2 is 2.82 µM. The IC50 on GABAA α1β2γ2 was greater than 10 µM.

Turning to `Cn1nc2c(-c3ccc(Cl)cc3Cl)cccc2c1-n1ccnc1` [I-22, 7-(2,4-Dichloro-phenyl)-3-imi-dazol-1-yl-2-methyl-2H-inda-zole], the melting point is 63.2 to 89.4 °C. Besides, at GABAA α2β3γ2, the IC50 is 0.355 µM. Besides, the IC50 at GABAA α1β2γ2 was 3.16 µM.

`Cn1nnc(Cc2c3cccc(-c4ccc(Cl)cc4Cl)c3nn2C)n1` [I-33, 7-(2,4-Dichloro-phenyl)-2-meth-yl-3-(2-methyl-2H-tetra-zol-5-ylmethyl)-2H-inda-zole] showed a melting point of 158.8 to 160.5 °C. Besides, on GABAA α2β3γ2, the IC50 is 0.102 µM. For the same compound, the IC50 at GABAA α1β2γ2 was 1.48 µM.

In the case of `Cn1nc2c(-c3ccc(Cl)cc3Cl)cccc2c1CN1CCOC1=O` [I-8, 3-[7-(2,4-Dichloro-phenyl)-2-meth-yl-2H-indazol-3-yl-methyl]-oxazolidin-2-one], the melting point lay in the range of 165.9 to 167.5 °C. At GABAA α2β3γ2, the IC50 was 1.51 µM. The IC50 on GABAA α1β2γ2 was 6.31 µM.

Take `Cn1nc2c(-c3ccc(Cl)cc3Cl)cccc2c1C1=NCCO1` [I-48, 7-(2,4-Dichloro-phenyl)-3-(4,5-di-hydro-oxazol-2-yl)-2-meth-yl-2H-indazole]: the melting point fell in the range of 162.2 to 167.1 °C. Moreover, at GABAA α2β3γ2, the IC50 was 0.468 µM. The IC50 at GABAA α1β2γ2 is greater than 10 µM.

On to `Cn1nc2c(-c3ccc(Cl)cc3Cl)cccc2c1Cc1nnnn1CCO` [I-10, 2-{5-[7-(2,4-Dichloro-phenyl)-2-methyl-2H-inda-zol-3-ylmethyl]-tetrazol-1-yl}-eth-anol], for which the melting point lay in the range of 66.1 to 87.2 °C. Also, the IC50 at GABAA α2β3γ2 is 0.398 µM. For the same compound, on GABAA α1β2γ2, the IC50 is greater than 10 µM.

`Cn1nnnc1Cc1c2cccc(-c3ccc(Cl)cc3Cl)c2nn1C` [I-20, 7-(2,4-Dichloro-phenyl)-2-meth-yl-3-(1-methyl-1H-tetra-zol-5-ylmethyl)-2H-inda-zole] gave a melting point of 183.9 to 185.4 °C. Besides, at GABAA α2β3γ2, the IC50 was 1.7 µM.

For the compound `Cn1nc2c(-c3ccc(Cl)cc3Cl)cccc2c1/C=C/c1nnn[nH]1` [I-47, 7-(2,4-Dichloro-phenyl)-2-meth-yl-3-[(E)-2-(1H-tetra-zol-5-yl)-vinyl]-2H-inda-zole], the melting point was 256.8 to 258.1 °C. Further, the IC50 on GABAA α2β3γ2 was 0.151 µM. Moreover, on GABAA α1β2γ2, the IC50 is 1.2 µM.

On to `Cn1nc2c(-c3ccc(Cl)cc3Cl)cccc2c1-c1cnco1` [I-51, 7-(2,4-Dichloro-phenyl)-2-meth-yl-3-oxazol-5-yl-2H-inda-zole], for which the melting point was 167.5 to 169.5 °C. The IC50 on GABAA α2β3γ2 is 0.166 µM. The IC50 on GABAA α1β2γ2 was 3.02 µM.

Consider `Cc1noc(-c2c3cccc(-c4ccc(Cl)cc4Cl)c3nn2C)n1` [I-50, 7-(2,4-Dichloro-phenyl)-2-meth-yl-3-(3-methyl-[1,2,4]oxa-diazol-5-yl)-2H-inda-zole], for which the melting point lay in the range of 178 to 178.5 °C. Moreover, the IC50 at GABAA α2β3γ2 is 0.676 µM. For the same compound, at GABAA α1β2γ2, the IC50 is greater than 10 µM.

As to `Cn1nc2c(-c3ccc(Cl)cc3Cl)cccc2c1Cc1nc[nH]n1` [I-31, 7-(2,4-Dichloro-phenyl)-2-meth-yl-3-(1H-[1,2,4]triazol-3-yl-methyl)-2H-indazole], the melting point was 206.3 to 207 °C. Moreover, the IC50 at GABAA α2β3γ2 was 0.355 µM. The IC50 at GABAA α1β2γ2 is 4.17 µM.

Consider `Cn1nc2c(-c3ccc(Cl)cc3Cl)cccc2c1C(=O)c1nnn[nH]1` [I-18, [7-(2,4-Dichloro-phenyl)-2-meth-yl-2H-indazol-3-yl]-(1H-tetra-zol-5-yl)-methanone], for which the melting point was 209.8 to 210.3 °C. The IC50 at GABAA α2β3γ2 was 0.11 µM. The IC50 at GABAA α1β2γ2 was 0.933 µM.

In the case of `Cn1nc2c(-c3ccc(Cl)cc3Cl)cccc2c1C1=NCCN1` [I-41, 7-(2,4-Dichloro-phenyl)-3-(4,5-di-hydro-1H-imidazol-2-yl)-2-meth-yl-2H-indazole], the melting point lay within 212.8 to 214.5 °C. In addition, the IC50 on GABAA α2β3γ2 is 4.68 µM. The IC50 on GABAA α1β2γ2 was greater than 10 µM.

With `Cn1nc2c(-c3ccc(Cl)cc3Cl)cccc2c1Cc1nnn[nH]1` [I-53, 7-(2,4-Dichloro-phenyl)-2-meth-yl-3-(1H-tetrazol-5-yl-methyl)-2H-indazole], the melting point is 270.1 to 275.5 °C. Moreover, the IC50 on GABAA α2β3γ2 is 0.234 µM. Besides, the IC50 on GABAA α1β2γ2 is 2.24 µM.

With `Cn1nc2c(-c3ccc(Cl)cc3Cl)cccc2c1Cc1nnn(CCO)n1` [I-11, 2-{5-[7-(2,4-Dichloro-phenyl)-2-methyl-2H-inda-zol-3-ylmethyl]-tetrazol-2-yl}-eth-anol], the melting point lay within 147.7 to 151.1 °C. For the same compound, the IC50 at GABAA α2β3γ2 is 0.347 µM. For the same compound, the IC50 on GABAA α1β2γ2 is 1.51 µM.

Regarding `Cn1nc2c(-c3ccc(Cl)cc3Cl)cccc2c1C(=O)c1ncn[nH]1` [I-15, [7-(2,4-Dichloro-phenyl)-2-meth-yl-2H-indazol-3-yl]-(2H-[1,2,4]tri-azol-3-yl)-meth-anone], the melting point was 283.9 to 284.9 °C. In addition, the IC50 at GABAA α2β3γ2 is 0.331 µM. The IC50 at GABAA α1β2γ2 is greater than 10 µM.

Compound `Cn1nc2c(-c3ccc(Cl)cc3Cl)cccc2c1CCC1=NCCN1` [I-38, 7-(2,4-Dichloro-phenyl)-3-[2-(4,5-di-hydro-1H-imidazol-2-yl)-eth-yl]-2-methyl-2H-inda-zole] gave a melting point of 60.5 to 65.1 °C. Besides, the IC50 at GABAA α2β3γ2 was greater than 10 µM. For the same compound, the IC50 at GABAA α1β2γ2 was greater than 10 µM.

On to `Cn1nc2c(-c3ccc(Cl)cc3Cl)cccc2c1CCc1nnn[nH]1` [I-46, 7-(2,4-Dichloro-phenyl)-2-meth-yl-3-[2-(1H-tetrazol-5-yl)-eth-yl]-2H-indazole], for which the melting point fell in the range of 209.4 to 210.3 °C. In addition, the IC50 at GABAA α2β3γ2 is 0.603 µM. Further, the IC50 at GABAA α1β2γ2 was 0.479 µM.

(Values after patent US20070238765A1, “Heterocyclic GABAA subtype selective receptor modulators” (Roche Palo Alto LLC, priority 2006, published 2007).)
